What all share (assay type): cell-based
Test [1] concerns Staphylococcus epidermidis ATCC 14990. Kind of test: micro-dilution assay (MBC, LD90). Here is the method: (§1) The anti-bacterial activity of hβD2 was tested by a micro-dilution assay. Bacteria and fungi were streaked from a glycerol stock onto a Brain Heart Infusion (BHI) agar plate (3.7% w/v BHI Bouillon, 1.5% w/v Agar), grown overnight at 37° C. and 30° C., respectively and subsequently used to inoculate 40 ml of 3.7% w/v BHI Bouillon without any antibiotics in 100 ml flasks. Fresh cells were harvested by centrifugation at 16000 rpm for 10 min and washed twice with 10 mM sodium phosphate buffer, pH 7.2. The optical density was adjusted to 10^4 cells/ml. For anti-bacterial testing hβD2 was incubated in one well of a microtiter plate containing 100 μl of the bacterial suspension. Therefore, ten microlitres of hβD2 solution with a range of final concentrations tested from 0.0125 up to and including 100 mg/l was added to the bacterial suspension and incubated at 37° C. and 30° C., respectively for 2 h before colony forming units were determined. Colony forming units (CFU) were determined after plating 100 μl of a 1:100 dilution of the bacterial suspension on petri dishes with BHI medium and incubating them overnight at 37° C. For every group of the hβD2 added samples and the controls, 5 independent anti-bacterial assays were performed. A control (NC) of bacterial growth was examined for every independent assay. The number of CFU on the control (consisting of a single petri dish) was set to 0% bactericidal activity. The reduction in the CFU resulting from the anti-bacterial activity of hβD2 was related to the absolute CFU of the control within every independent assay. This value, given as a percentage of the bacterial “killing” activity, was used to describe the antibacterial activity. This kind of normalisation of the antibacterial data was performed for every experimental group.
(§2) The antibacterial activity of hβD2 were given either as minimum bactericidal concentration (MBC), i.e., the minimum concentration of hβD2 in μg/ml which is required to kill 99.9% of the bacteria or fungi or as lethal dose (LD90), i.e., the concentration of hβD2 in μg/ml which is lethal for 90% of bacteria or fungi.

Test [2] relates to Enterobacter cloacae ATCC 13047. Kind of test: micro-dilution assay (MBC, LD90). How it is done: as §1, §2
For a further test, the system named is E. coli ATCC 35218. The experiment in a line: micro-dilution assay (MBC, LD90). Here is the method: as §1, §2
(In general: Dilution methods test growth across graded concentrations, often in twofold steps.)

Test [3] concerns Campylobacter jejuni ATCC 33560. Kind of test: micro-dilution assay (MBC, LD90). How it is done: as §1, §2
The test system of test [4] is Yersinia enterococcus NCTC 11174. The experiment in a line: micro-dilution assay (MBC, LD90). How it is done: as §1, §2
In test [5] the test system is Acinetobacter haemolyticus ATCC 17906. Kind of test: micro-dilution assay (MBC, LD90). Here is the method:
as §1, §2

In test [6] the test system is Candida albicans C.a 14 (wild-type). The experiment in a line: micro-dilution assay (MBC, LD90). How it is done: as §1, §2
The subject of test [7] is Escherichia coli strain DB3.1. Kind of test: micro-dilution assay of coated titanium pins and peptide controls (bacterial killing, CFU). How it is done: In a first experiment 10 μg of hβD2 was coated to three different SAM Hexadecyltrimethoxysilane (SAM 1), Dimethoxymethyloctylsilane (SAM 2), and oxidized Allyltrimethoxysilane (SAM 3) of the modified titanium pins. The anti-bacterial activity of the hβD2-coated pins was tested by a micro-dilution assay. Therefore, Escherichia coli strain DB3.1 (Invitrogen, Cat. No. 11782-018) was used. E. coli was streaked from a glycerol stock onto a Brain Heart Infusion (BHI) agar plate (3.7% (w/v) BHI Bouillon, 1.5% (w/v) Agar), grown overnight at 37° C. and subsequently used to inoculate 40 ml of 3.7% (w/v) BHI Bouillon without any antibiotics in 100 ml flasks. Fresh cells were harvested by centrifugation at 16000 rpm for 10 min and washed twice with 10 mM sodium phosphate buffer, pH 7.2. The optical density was adjusted to 10^4 cells/ml. For anti-bacterial testing, a single pin coated with hβD2 was incubated in one well of a microtiter plate containing 100 μl of the bacterial suspension.
Functionalized titanium pins without hβD2 served as negative controls (SAM1-n, SAM2-n, SAM3-n, SAM4::Col-NHS-n, SAM4::Col-Glu-n). In addition, 5 independent control reactions consisting of hβD2 in a final amount of 0 (NC), 0.02 (PC1), 0.2 (PC2), 2 (PC3) and 10 (PC4) μg were examined in parallel. To determine the specificity of the anti-bacterial activity of hβD2, 10 μl (10 μg/ml in PBS) of polyclonal monospecific anti-hβD2 antibodies were co-incubated with 10 μg of hβD2 and bacterial cells (Table I, PC4/ab).
The microtiter plates were incubated for 2 h at 37° C. The kinetic studies were performed by replacing the bacterial suspension, after 2 h of cultivation with a freshly pre-cultured E. coli solution, which contained the same bacterial concentration, and cultivating for another 2 h and so on. Colony forming units (CFU) were determined after plating 100 μl of a 1:100 dilution of the bacterial suspension on petri dishes with BHI medium and incubating them overnight at 37° C. For every group of the functionalized titanium pins and the controls, 5 independent anti-bacterial assays were performed. A control (NC) of bacterial growth was examined for every independent assay. The number of CFU on the control (consisting of a single petri dish) was set to 0% bactericidal activity. The reduction in the CFU resulting from the anti-bacterial activity of hβD2 was related to the absolute CFU of the control within every independent assay. This value, given as a percentage of the bacterial “killing” activity, was used to describe the antibacterial activity. This kind of normalisation of the antibacterial data was performed for every experimental group.
To examine the release behavior of hβD2 that is adsorbed by different SAM modified titanium pins a time kinetic experiment was performed. The experiment was performed analogous to Example 2. For this experiment 80 μg of hβD2 was adsorbed to three different SAMs Hexadecyltrimethoxysilane (SAM1), Dimethoxymethyloctylsilane (SAM2), and oxidized Allyltrimethoxysilane (SAM3) of the modified titanium pins.
Since it is known that collagen has a positive impact on wound healing, functionalised titanium pins with collagen were investigated. Two different cross-linking strategies for collagen on SAM3 and SAM4 were applied as described in Example 1: (i) a covalently binding strategy with the NHS/EDC cross-linking system, and (ii) the use of glutaraldehyde. Successful binding of collagen was monitored by collagen-specific DirectRed staining (as described in Example 1). […] Additionally 80 μg hβD2 was adsorbed to collagen functionalized SAM3 and SAM4 modified titanium pins, respectively. For monitoring the antibacterial activity of the bio-coated pins the experiment was performed analogous to Example 3. […]

Here are results for one substance from patent publication US20110311601A1, “ANTIMICROBIAL MEDICAL DEVICES” (priority 2010, published 2011).

Where no end group is shown, it is not given here. Where only a bound is given, the exact number is not on record here.

“human β-defensin-2 (GIGDPVTCLKSGAICHPVFCPRRYKQIGTCGLPGTKCCKKP; ends and bridges not checked; cysteine pairing not given here) [hβD2, recombinant hβD2]”: the “LD 90 = μg/ml 90% killing” value was 50 µg/mL in test [1]; 25 µg/mL in test [2]; 3.125 µg/mL in the test with E. coli ATCC 35218; 3.125 µg/mL in test [3]; over 100 µg/mL in test [4]; 0.39 µg/mL in test [5]. In test [6], the “LD 90 = μg/ml 90% killing” value was found to be 12.5 µg/mL. The “MBC = μg/ml 99.9% killing” value in test [1] was 100 µg/mL; in test [2], 100 µg/mL; against E. coli ATCC 35218 it was 6.25 µg/mL; in test [3], 6.25 µg/mL; in test [4], over 100 µg/mL; in test [5] it was 1.56 µg/mL. Further, the “MBC = μg/ml 99.9% killing” value in test [6] came out at 25 µg/mL. Moreover, the “antmicrobial activity, bacterial killing [%]” value in test [7] (control PC1: 0.02 μg rHuβD2, 2 h) was determined as 14.80 ± 2.78%; in test [7] (control PC2: 0.20 μg rHuβD2, 2 h), 32.38 ± 2.93%; in test [7] (control PC3: 2.00 μg rHuβD2, 2 h), 92.80 ± 3.91%; in test [7] (control PC4/ab: 10.00 μg rHuβD2 co-incubated with polyclonal anti-hβD2 antibodies, 2 h), 0%; in test [7] (control PC4: 10.00 μg rHuβD2, 2 h), 100%.
